What was measured:
Settings in all cases: 72 h
Caco-2 [1] = assay: cell viability relative to DMSO; higher = less toxic
Calu-3 [2] = assay: as above
HepG2 [3] = assay: as above
U2OS [4] = assay: as above
Vero E6 [5] = assay: as above
Caco-2 [6] = assay: relative viability EC50 (midpoint between 100% and the lowest measured viability); higher = less toxic
HepG2 [7] = assay: as above
U2OS [8] = assay: as above
Caco-2 [9] = assay: drug sensitivity score (DSS) for viability; higher = more toxic; extreme values may be limits of the assay
Calu-3 [10] = assay: as above
HepG2 [11] = assay: as above
U2OS [12] = assay: as above
Vero E6 [13] = assay: as above
Vero E6 [14] = assay: relative viability EC50 (midpoint between 100% and the lowest measured viability); higher = less toxic
Calu-3 [15] = assay: as above

Row | SMILES | cell viability (Caco-2 [1]; 1 nM) | cell viability (Caco-2 [1]; 10 nM) | cell viability (Caco-2 [1]; 100 nM) | cell viability (Caco-2 [1]; 1000 nM) | cell viability (Caco-2 [1]; 10000 nM) | cell viability (Calu-3 [2]; 1 nM) | cell viability (Calu-3 [2]; 10 nM) | cell viability (Calu-3 [2]; 100 nM) | cell viability (Calu-3 [2]; 1000 nM) | cell viability (Calu-3 [2]; 10000 nM) | cell viability (HepG2 [3]; 1 nM) | cell viability (HepG2 [3]; 10 nM) | cell viability (HepG2 [3]; 100 nM) | cell viability (HepG2 [3]; 1000 nM) | cell viability (HepG2 [3]; 10000 nM) | cell viability (U2OS [4]; 1 nM) | cell viability (U2OS [4]; 10 nM) | cell viability (U2OS [4]; 100 nM) | cell viability (U2OS [4]; 1000 nM) | cell viability (U2OS [4]; 10000 nM) | cell viability (Vero E6 [5]; 1 nM) | cell viability (Vero E6 [5]; 10 nM) | cell viability (Vero E6 [5]; 100 nM) | cell viability (Vero E6 [5]; 1000 nM) | cell viability (Vero E6 [5]; 10000 nM) | relative viability EC50 (Caco-2 [6]) | relative viability EC50 (HepG2 [7]) | relative viability EC50 (U2OS [8]) | drug sensitivity score (Caco-2 [9]) | drug sensitivity score (Calu-3 [10]) | drug sensitivity score (HepG2 [11]) | drug sensitivity score (U2OS [12]) | drug sensitivity score (Vero E6 [13]) | relative viability EC50 (Vero E6 [14]) | relative viability EC50 (Calu-3 [15])
1 | COc1ccc(-n2c(SCCCN3C(=O)c4cccc5cccc(c45)C3=O)nnc2-c2ccncc2)cc1 [WIKI4] | 90.5% | 109% | 96% | 87% | 95.6% | 96.2% | 103% | 92.8% | 75% | 71.3% | 96.3% | 97.6% | 93.4% | 107% | 100% | 100% | 109% | 98.6% | 95.7% | 87.3% | 97.8% | 101% | 97.9% | 91.8% | 66.8% | > 10 µM | > 10 µM | > 10 µM | 1.1 | 4.7 | 0 | 0.2 | 2.8 |  | 
2 | c1ccc(NCc2ccc(CNc3ccccn3)cc2)nc1 [WZ811] | 97.9% | 105% | 103% | 95.5% | 100% |  |  |  |  |  | 98.6% | 101% | 98.7% | 106% | 111% | 96.8% | 96.1% | 99.8% | 96.7% | 97.9% | 93.5% | 95.5% | 94.2% | 101% | 103% | > 10 µM | > 10 µM | > 10 µM | 0 |  | 0 | 0 | 0 | > 10 µM | 
3 | CC(=O)O[C@H]1CC[C@@]2(C)C(=CC[C@@H]3[C@@H]2CC[C@]2(C)C(c4cccnc4)=CC[C@@H]32)C1 [abiraterone-acetate] | 97.1% | 99.8% | 95.5% | 92.8% | 92.6% | 98.3% | 102% | 96.6% | 87.8% | 107% |  |  |  |  |  | 101% | 100% | 99.5% | 95.8% | 102% |  |  |  |  |  | > 10 µM |  | > 10 µM | 0 | 0 |  | 0 |  |  | > 10 µM
4 | Cc1nc2ccccc2n1Cc1ccc(Cl)cc1 [chlormidazole] | 103% | 101% | 109% | 83.1% | 77.8% |  |  |  |  |  | 92.3% | 95.4% | 109% | 92.1% | 25.1% | 99.2% | 95.9% | 98.8% | 96.9% | 95.8% | 96.7% | 107% | 104% | 107% | 85.9% | > 10 µM | 2.3 µM | > 10 µM | 2.4 |  | 5.4 | 0 | 0.1 | > 10 µM | 
5 | C[N+](C)(C)CCOP(=O)(O)OC[C@H](O)CO [choline-alfoscerate] | 106% | 101% | 100% | 100% | 102% | 99.9% | 98% | 91.2% | 96.3% | 102% |  |  |  |  |  | 105% | 102% | 101% | 99.4% | 98% |  |  |  |  |  | > 10 µM |  | > 10 µM | 0 | 0 |  | 0 |  |  | > 10 µM
6 | COc1cc2c(c(OC)c1OC)-c1ccc(OC)c(=O)cc1[C@@H](NC(C)=O)CC2 [colchicine] | 97.2% | 103% | 45.8% | 46.1% | 41.1% |  |  |  |  |  | 104% | 91.2% | 38% | 34.8% | 39.7% | 104% | 103% | 25.3% | 20% | 19.2% | 101% | 101% | 96.9% | 31.1% | 28.5% | 0.0419 µM | 0.0241 µM | 0.0407 µM | 17.5 |  | 21.2 | 23.9 | 13.2 | 0.308 µM | 
7 | c1ccc(CCNc2nc(-c3ccccc3)cs2)cc1 [fanetizole] | 96.4% | 87.3% | 92.3% | 88.9% | 87.3% |  |  |  |  |  | 101% | 96.9% | 103% | 94.5% | 100% | 104% | 104% | 104% | 97.7% | 101% | 98.7% | 99.7% | 101% | 98.4% | 100% | > 10 µM | > 10 µM | > 10 µM | 0.9 |  | 0 | 0 | 0 | > 10 µM | 
8 | CC(C)OC(=O)C(C)(C)Oc1ccc(C(=O)c2ccc(Cl)cc2)cc1 [fenofibrate] |  |  |  |  |  | 103% | 111% | 102% | 36.9% | 94.5% |  |  |  |  |  | 100% | 100% | 98.4% | 95.7% | 92.6% |  |  |  |  |  |  |  | > 10 µM |  | 0 |  | 0 |  |  | > 10 µM
9 | Cc1ccc(S(=O)(=O)NC(=O)NN2CC3CCCC3C2)cc1 (stereo not given) [gliclazide] | 87% | 110% | 100% | 102% | 89% |  |  |  |  |  | 99.1% | 96.1% | 105% | 118% | 108% | 92% | 99.3% | 102% | 93.3% | 101% | 106% | 97% | 101% | 99.2% | 102% | > 10 µM | > 10 µM | > 10 µM | 0 |  | 0 | 0 | 0 | > 10 µM | 
10 | COc1ccccc1OCC(O)CNC(C)C (stereo not given) [moprolol] | 97.7% | 95.4% | 99.6% | 98.2% | 92.7% |  |  |  |  |  | 98.3% | 113% | 100% | 98.3% | 103% | 101% | 96.6% | 99.7% | 102% | 103% | 102% | 99.6% | 105% | 99.5% | 102% | > 10 µM | > 10 µM | > 10 µM | 0 |  | 0 | 0 | 0 | > 10 µM | 
11 | CCCCCCCCCCCCCCOC(=O)c1cccnc1 [myristyl-nicotinate] | 98.2% | 103% | 97.7% | 97.8% | 103% |  |  |  |  |  | 98.7% | 93.5% | 105% | 99.4% | 102% | 101% | 96.7% | 101% | 98.4% | 102% | 96.6% | 98.2% | 97.6% | 102% | 101% | > 10 µM | > 10 µM | > 10 µM | 0 |  | 0 | 0 | 0 | > 10 µM | 
12 | CC(C)(CO)[C@@H](O)C(=O)NCCC(=O)O [pantothenic-acid] | 101% | 97.3% | 96.7% | 94.8% | 66.4% | 99.6% | 97.7% | 106% | 87.8% | 103% |  |  |  |  |  | 95.9% | 91.4% | 101% | 92.3% | 97.4% | 100% | 103% | 95% | 98.5% | 94% |  |  | > 10 µM | 2.4 | 0 |  | 0 | 0 | > 10 µM | > 10 µM
13 | Cc1cccn2c(=O)c(-c3nnn[nH]3)cnc12 [pemirolast] | 95.1% | 98.6% | 92.6% | 96.1% | 97.6% |  |  |  |  |  | 102% | 98.2% | 101% | 96.2% | 92.7% | 98.4% | 95.1% | 95.4% | 91.5% | 95.6% | 89.7% | 88.7% | 88.5% | 96.4% | 93.8% | > 10 µM | > 10 µM | > 10 µM | 0 |  | 0 | 0 | 0 | > 10 µM | 
14 | O=C(/C=C/c1ccc(O)c2c1[C@H](C(=O)O[C@H](Cc1ccc(O)c(O)c1)C(=O)O)[C@@H](c1ccc(O)c(O)c1)O2)O[C@H](Cc1ccc(O)c(O)c1)C(=O)O [salvianolic-acid-B] | 99.2% | 97.1% | 96.6% | 104% | 101% |  |  |  |  |  | 101% | 86.8% | 107% | 96.3% | 98% | 94.4% | 98.2% | 97.5% | 101% | 97.8% | 96.1% | 92.9% | 95.3% | 91.6% | 103% | > 10 µM | > 10 µM | > 10 µM | 0 |  | 0 | 0 | 0 | > 10 µM | 
15 | NCCc1c[nH]c2ccc(O)cc12 [serotonin] | 96.8% | 89.1% | 102% | 90.2% | 89.5% |  |  |  |  |  | 89.2% | 91.4% | 94.3% | 88.4% | 107% | 91.3% | 95.8% | 94.3% | 97.3% | 92.9% | 107% | 102% | 103% | 98.9% | 101% | > 10 µM | > 10 µM | > 10 µM | 0 |  | 0 | 0 | 0 | > 10 µM | 
16 | Cc1nc(-c2cn3c(n2)-c2ccc(-c4cnn(C(C)(C)C(N)=O)c4)cc2OCC3)n(C(C)C)n1 [taselisib] | 106% | 99.6% | 90.8% | 59.4% | 32.4% | 99.2% | 88.1% | 63.6% | 36% | 24% | 97.4% | 84.8% | 70.3% | 62.7% | 52% | 102% | 97.3% | 90.4% | 70.3% | 57.2% | 106% | 106% | 97.3% | 85% | 62.6% | 0.649 µM |  |  | 8.9 | 16.9 | 11.6 | 6.2 | 3.5 |  | 0.107 µM
17 | O=c1oc2cc(O)ccc2s1 [tioxolone] | 90.6% | 97.9% | 88.6% | 107% | 77.2% | 99.8% | 102% | 97.8% | 98.5% | 64.3% | 104% | 90.4% | 96% | 93.7% | 104% | 96.2% | 103% | 100% | 104% | 95.6% | 101% | 98.1% | 99.9% | 94.2% | 101% | > 10 µM | > 10 µM | > 10 µM | 0.5 | 1.9 | 0 | 0 | 0 | > 10 µM | 
18 | CC(C(=O)O)c1ccc2c(c1)CC(=O)c1ccccc1S2 (stereo not given) [zaltoprofen] | 99.7% | 93.8% | 98.4% | 106% | 101% |  |  |  |  |  | 95.5% | 103% | 101% | 110% | 111% | 99.9% | 97.3% | 99.6% | 98.1% | 101% | 93.8% | 101% | 90.9% | 100% | 104% | > 10 µM | > 10 µM | > 10 µM | 0 |  | 0 | 0 | 0 | > 10 µM | 
